Here are results for seven compounds from US10947260B2, “Phosphinolactone derivatives and pharmaceutical uses thereof” (INSTITUT NATIONAL DE LA SANTE ET DE LA RECHERCHE MEDICALE …, priority 2016, dated 2021).

The subject of assay [1] is mice treated with scopolamine. Put plainly: Passive avoidance, scopolamine amnesia model. The class given is in vivo. The protocol:
(§1) FIG. 5: Anti-amnesic effect of compound 3b in mice treated with scopolamine: (a, b) spontaneous alternation in Y-maze, and (c, d) passive avoidance. The mice were given compound 3b (0.03-1.5 mg/kg IP) 10 min before scopolamine (0.5 mg/kg SC), 20 min before the Y-maze session or passive avoidance training. Y-maze test: (a) spontaneous alternation and (b) total number of arm entries; retention of passive avoidance: (c) step-through latency and (d) escape latency. ANOVA: F(6.94)=5.32, p<0.0001 at (a); F(6.94)=10.6, p<0.0001 at (b); H=31.4, p<0.0001 at (c); H=24.3, p<0.001 at (d); n=12-19 per group. *p<0.05, **p<0.01, ***p<0.001 compared with group (Sc.Aβ+V); #p<0.05, ##p<0.01, ###p<0.001 compared with group (Aβ25-35+V); Dunnett test at (a, b) and Dunn at (c, d).
FIG. 6: Analysis of the antagonism of anti-amnesic effects of compound 3b in mice treated with scopolamine: (a, c, e) spontaneous alternation in Y-maze, and (b, d, f) step-through latency at recall session of passive avoidance. The mice were treated with methyllycaconitine (MLA, 1 or 3 mg/kg IP), dihydro-ß-erythroidine (DHßE, 1 or 3 mg/kg IP), or NE100 (1 mg/kg IP), simultaneously with compound 3b (0.1 mg/kg IP) 10 min before scopolamine (S, 0.5 mg/kg SC), 20 min before behavioural session. […]
The apparatus contained two compartments (15×20×15 cm in height) with one light part having walls in white PVC and the other dark with walls in black PVC and a grid floor. […] Step-through latency (STL) i.e. the time taken to enter the dark compartment and the number of cries, were recorded. […] Step-through latency was recorded up to 300 s.
(§2) Finally, a first mechanistic analysis of the pharmacological effect in vivo of compound 3b was carried out. With the objective of confirming that the compound, neuroprotective against amyloid toxicity, could also be anti-amnesic in a pharmacological amnesia model, we first determined its effectiveness against the amnesic effects of scopolamine. […]

For assay [2], the system named is mice treated with scopolamine. As to the kind of experiment: Spontaneous alternation in Y-maze, scopolamine amnesia model. The class given is in vivo. The protocol: as §1
FIG. 6: Analysis of the antagonism of anti-amnesic effects of compound 3b in mice treated with scopolamine: (a, c, e) spontaneous alternation in Y-maze, and (b, d, f) step-through latency at recall session of passive avoidance. The mice were treated with methyllycaconitine (MLA, 1 or 3 mg/kg IP), dihydro-ß-erythroidine (DHßE, 1 or 3 mg/kg IP), or NE100 (1 mg/kg IP), simultaneously with compound 3b (0.1 mg/kg IP) 10 min before scopolamine (S, 0.5 mg/kg SC), 20 min before behavioural session. ANOVA: F(5.87)=7.19, p<0.0001 at (a); H=31.3, p<0.0001 at (b); F(5.82)=5.82, p<0.0001 at (c); H=28.8, p<0.0001 at (d); F(4.77)=10.0, p<0.0001 at (e); H=30.5, p<0.0001 at (f); n=12-17 per group. *p<0.05, **p<0.01, ***p<0.001 compared with group (Sc.Aβ+V); #p<0.05, ##p<0.01, ###p<0.001 compared with group (Aβ25-35+V); Dunnett test at (a, b) and Dunn at (c, d).
The animals were tested for spontaneous alternation performance in a Y-maze, an index of spatial working memory. The Y-maze was in grey PVC. Each arm was 40 cm long, 13 cm high, 3 cm wide at the base and 10 cm wide in the upper part, and converging at an equal angle. Each mouse was placed at one end of an arm and was able to move freely through the maze during an 8-min session. The series of arm entries, including any returns in the same arm were visually analysed. Alternation is defined as being consecutive entries in three different arms. The maximum number of alternations is therefore the total number of arm entries less two, and alternation percentage is calculated as (actual alternations/maximum possible alternations)×100. […]
as §2

Assay [3] concerns mice. As to the kind of experiment: Forced swim test. The class given is in vivo. The protocol:
FIG. 13: Assays of compound 3b as positive modulator of the sigma-1 protein. […] Male Swiss mice aged 7 weeks (n=10-12 per group) were forced to swim for 15 min on Day 1 and 6 min on Day 2. They were given NE-100 (10 mg/kg ip), 10 min before compound 3b (10 mg/kg ip) and 20 min before the session of Day 2. Immobility was measured over the last 5 minutes of the session. The vehicle solution was distilled water. F(3.42)=4.45, p<0.01; **p<0.01 vs. group V/V, ##p<0.01 vs. group V/3b, Dunnet test. […] Wild-type mice (Wt, n=14-15) and S1R KO mice (n=9-10) were forced to swim 15 min on Day 1 and 6 min on Day 2. They were given compound 3b (10 mg/kg ip) 20 min before the session on Day 2. Immobility was measured during the last 5 minutes of the session. The vehicle solution was distilled water. F(3.49)=6.64, p<0.001; **p<0.01 vs. group Wt/V, Dunnett test. […] Male Swiss mice aged 7 weeks (n=8-23 per group) were forced to swim for 15 min on Day 1 and 6 min on Day 2. They were given igmesine (10, 30 mg/kg ip) and/or compound 3b (10 mg/kg ip) 20 min before the session on Day 2. NE-100 (10 mg/kg ip) was injected 10 min before igmesine and compound 3b. Immobility was measured during the last 5 minutes of the session. The vehicle solution was distilled water. F(6.90)=5.59, p<0.0001; ***p<0.001 vs. group V, ##p<0.01 vs. group V/Igmesine (10)+3B (5), Dunnett test.

Assay [4] has as its system mice treated with Aβ25-35. The following applies: IP; Aβ25-35 model; cited from earlier work.
In assay [5] the test system is mice treated with peptide Aβ25-35. Put plainly: In vivo screening of derivatives as neuroprotectors (spontaneous alternation, passive avoidance, ROS level), Aβ25-35 model. To be noted: 0.3 mg/kg IP. The protocol:
FIG. 7: Screening of phosphinolactones as neuroprotectors in mice treated with peptide Aβ25-35: (a) spontaneous alternation; (b) passive avoidance step-through latency; (c) Levels of reactive oxygen species in hippocampus. The mice were given compound 3b (0.3, 0.7 mg/kg IP) or a dose of each compound (0.3 mg/kg IP) 20 min before I′Aβ25-35 or the control peptide Sc.Aβ (9 nmol ICV). The animals were tested in the Y-maze on Day 7 after the ICV injections and for passive avoidance on Days 8-9, and then sacrificed. In each graph at (a-c), the 50% protection level compared with the deficit induced by Aβ25-35 is plotted as a dotted line. It is to be noted that at (a), the column represents the median and the error bars represent the deviations 25%-75% (=asymmetric deviations). n=12 at (a, b) and 5-6 at (c). ANOVA on groups 1-4: F(3.63)=7.95, p<0.001 at (b); H=24.1, p<0.0001 at (c); F(3.44)=6.33, p<0.01 at (d). *p<0.05, **p<0.01, ***p<0.001 compared with group (Sc.Aβ+V); #p<0.05, ##p<0.01, ###p<0.001 compared with group (Aβ25-35+V); Dunnett test at (a, c) and Dunn at (b). The values of the groups 5-12 (screened compounds) were analysed by t-test at (a, c) or Mann-Whitney at (b).
From the molecules derived from the synthesis, a panel of 8 derivatives was selected and screened for potential neuroprotective efficacy. The compounds were injected at a dose of 0.3 mg/kg IP, i.e. the maximum non-active dose of 3b and compared with 3b injected at 0.3 and 0.7 mg/kg IP. The compounds were injected […] before the Aß25-35 peptide, and the mice were tested for spontaneous alternation on Day 7, passive avoidance on Days 8 and 9 and the ROS level was measured in the hippocampus (FIG. 7). For each response (spontaneous alternation: FIG. 7a; step-through latency in passive avoidance: FIG. 7b, and DCF fluorescence level: FIG. 7c), a 50% level of the effect between the values of the ScAß and Aß25-35 animals was taken as criterion of efficacy. […] Compound 3c is an isomer at the position of the chlorine atom of 3b. Regarding compound 3n, this has a 5-pyrimidyl group attached to the phosphorus atom, and for compound 3l it is a 4-pyridinyl group.

The mark [6] stands for this setting: antagonist at the two doses tested (1 or 3 mg/kg IP) with 3b 0.1 mg/kg IP.
The mark [7] stands for this setting: antagonist 1 mg/kg IP with 3b 0.1 mg/kg IP.

Turning to `CO[C@H]1CC=C2CCN3CCC4=C(CC(=O)OC4)[C@]23C1` [DhßE, dihydro-β-erythroidine], the “antagonism of the anti-amnesic effect of compound 3b, passive avoidance” value (“antagonism … passive avoidance” below) in assay [1] (setting [6]) is recorded as “ineffective”. For the same compound, the “antagonism of the anti-amnesic effect of compound 3b, spontaneous alternation” value (“antagonism … spontaneous alternation” below) in assay [2] (setting [6]) is reported as “ineffective”.

Consider `CCC(C/C=C/c1ccccc1)(c1ccccc1)N(C)CC1CC1` (centres unmarked) [igmesine], for which the “activity in forced swim test” value in assay [3] (10 mg/kg) is “not active”.

Regarding `CCN1C[C@]2(COC(=O)c3ccccc3N3C(=O)C[C@H](C)C3=O)CC[C@H](OC)[C@@]34[C@@H]5C[C@H]6[C@H](OC)[C@@H]5[C@](O)(C[C@@H]6OC)[C@@](O)([C@@H](OC)[C@H]23)[C@@H]14` [MLA, methyllycaconitine], the “antagonism … passive avoidance” value in assay [1] (setting [7]) is “attenuated the effect”. Also, in assay [2] (antagonist 3 mg/kg IP with 3b 0.1 mg/kg IP), the “antagonism … spontaneous alternation” value was “blocked the anti-amnesic effect of compound 3b”.

Consider `CC12CC3CC(C)(C1)CC(N)(C3)C2` [memantine], for which, in assay [4], the “active dose of reference molecules in this model” value was 1 mg/kg.

Regarding `CCCN(CCC)CCc1ccc(OC)c(OCCc2ccccc2)c1` [NE100], the “antagonism … passive avoidance” value in assay [1] (setting [7]) is “attenuated the effect”. Moreover, in assay [3] (NE-100 10 mg/kg ip, 10 min before 3b 10 mg/kg ip), the “blockade of the antidepressant effect of compound 3b” value was “blocked”. Moreover, the “antagonism … spontaneous alternation” value in assay [2] (setting [7]) is “blocked the effect of compound 3b”.

On to `CC1(C)COP(=O)(c2cncnc2)C(C)(C)N1` (racemic) [Compound 3n, (±)-2-(Pyrimidin-5-yl)-2-oxo-3,3,5,5-tetramethyl-[1,4,2]-oxazaphosphinane], for which, in assay [5], the “criterion of efficacy: 50% level of the effect between ScAβ and Aβ25-35 animals (spontaneous alternation, step-through latency, DCF fluorescence)” value is on record as “met the criterion for the 3 parameters”.

As to `CC1(C)COP(=O)(c2ccncc2)C(C)(C)N1` (racemic) [Compound 3l, (±)-2-(Pyridin-4-yl)-2-oxo-3,3,5,5-tetramethyl-[1,4,2]-oxazaphosphinane], the “criterion of efficacy: 50% level of the effect between ScAβ and Aβ25-35 animals (spontaneous alternation, step-through latency, DCF fluorescence)” value in assay [5] is “met the criterion for the 3 parameters”.
